The target in this assay is Human CARM1 (PRMT4) (Homo sapiens (Human), UniProt Q86X55). The assay can be described thus: CARM1 enzyme assay on peptide substrate (3H-SAM Flashplate). The note with it: Biochemical potencies, classification codes; read-out: Biochem IC50.
Chain of Human CARM1 (PRMT4) (Q86X55 other isoform, or with tags, fused parts or gaps isoform Q86X55-1): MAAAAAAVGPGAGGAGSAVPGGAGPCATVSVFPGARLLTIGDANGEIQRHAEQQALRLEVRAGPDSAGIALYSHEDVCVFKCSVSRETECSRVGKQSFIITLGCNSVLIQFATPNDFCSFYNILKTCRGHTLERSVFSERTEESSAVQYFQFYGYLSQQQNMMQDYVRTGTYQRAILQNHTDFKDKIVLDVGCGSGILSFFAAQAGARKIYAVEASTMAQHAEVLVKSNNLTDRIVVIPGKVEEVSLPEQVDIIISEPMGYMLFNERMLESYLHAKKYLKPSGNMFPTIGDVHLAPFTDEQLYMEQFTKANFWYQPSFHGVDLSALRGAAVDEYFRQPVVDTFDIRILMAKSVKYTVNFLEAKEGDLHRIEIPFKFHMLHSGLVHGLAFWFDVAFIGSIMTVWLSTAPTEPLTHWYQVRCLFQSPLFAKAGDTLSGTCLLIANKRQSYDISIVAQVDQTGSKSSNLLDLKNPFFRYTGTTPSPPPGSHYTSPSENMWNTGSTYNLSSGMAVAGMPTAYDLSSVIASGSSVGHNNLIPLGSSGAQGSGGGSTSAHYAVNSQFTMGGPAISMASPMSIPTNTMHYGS
`CNCC(O)COc1cccc(-c2nc(N[C@@H]3CCOC3)c(C)c(-c3cncnc3)n2)c1` (stereo partly shown) [Example 350-1a]: the IC50 is below 100 nM.
To `CNCC(O)COc1cccc(-c2nc(NC3CCOC3)c(C)c(N3CCN[C@@H](C)C3)n2)c1` (stereo partly shown) [Example 351-1a] belongs below 100 nM; to `CNCC(O)COc1cccc(-c2nc(NC3CCOC3)c(C)c(N3CCNC[C@H]3C)n2)c1` (stereo partly shown) [Example 352-1a], below 100 nM.
As for `CNCC(O)COc1cccc(-c2nc(N[C@@H]3CCOC3)c(C)c(-c3cnc4[nH]ccc4c3)n2)c1` (stereo partly shown) [Example 355-1a], the IC50 was below 100 nM.
`CNCC(O)COc1cccc(-c2nc(N[C@@H]3CCOC3)c(C)c(-c3cnc(OC)nc3)n2)c1` (stereo partly shown) [Example 356-1a]: the IC50 is below 100 nM.
In the case of `CNCC(O)COc1cccc(-c2nc(N[C@@H]3CCOC3)c(C)c(N3CCC[C@@H](O)C3)n2)c1` (stereo partly shown) [Example 358-1a] it was below 100 nM; in that of `CNCC(O)COc1cccc(-c2nc(N[C@@H]3CCOC3)c(C)c(N3CCn4ccnc4C3)n2)c1` (stereo partly shown) [Example 359-1a], below 100 nM.
`CNCC(O)COc1cccc(-c2nc(N[C@H]3CCOC3)c(C)c(N3CCC(O)CC3)n2)c1` (stereo partly shown) [Example 362-1a]: the IC50 is below 100 nM.
To `CNCC(O)COc1cccc(-c2nc(N[C@H]3CCOC3)c(C)c(C(=O)N(C)CC3CCOCC3)n2)c1` (stereo partly shown) [Example 363-1a] belongs 100 to 1000 nM; to `CNCC(O)COc1cccc(-c2nc(NCCCCl)c(C)c(N[C@@H]3CCOC3)n2)c1` (stereo partly shown) [Example 366-1a], below 100 nM.
In the case of `CNCC(O)COc1cccc(-c2nc(N[C@@H]3CCOC3)c(C)c(N3CCC(N4CCOCC4)CC3)n2)c1` (stereo partly shown) [Example 367-1a] it was below 100 nM; in that of `CNCC(O)COc1cccc(-c2nc(N[C@@H]3CCOC3)c(C)c(N3CC[C@H](N(C)C)C3)n2)c1` (stereo partly shown) [Example 368-1a], below 100 nM.
In the case of `CNCC(O)COc1cccc(-c2nc(N[C@@H]3CCOC3)c(C)c(N3CC[C@@H](OC)C3)n2)c1` (stereo partly shown) [Example 369-1a] it was below 100 nM.
On to `CNCC(O)COc1cccc(-c2nc(N[C@@H]3CCOC3)c(C)c(N3CCC(OC)CC3)n2)c1` (stereo partly shown) [Example 370-1a], for which the IC50 was below 100 nM.
For `CNCC(O)COc1cccc(-c2nc(N[C@@H]3CCOC3)c(Cl)c(N3CCOCC3)n2)c1` (stereo partly shown) [Example 376-1a], the IC50 is below 100 nM.
Regarding `CNCC(O)COc1cccc(-c2nc(N[C@@H]3CCOC3)c(C)c(N3CCC3)n2)c1` (stereo partly shown) [Example 377-1a], the IC50 is below 100 nM.
As for `CNCC(O)COc1cccc(-c2nc(N[C@@H]3CCOC3)c(C)c(N(C)C3CCN(C)CC3)n2)c1` (stereo partly shown) [Example 379-1a], the IC50 was below 100 nM.
To `CNCC(O)COc1cccc(-c2nc(N[C@H]3CCOC3)c(C)c(-n3nc(C)cc3C)n2)c1` (stereo partly shown) [Example 381-1a] belongs below 100 nM.
On to `CNCC(O)COc1cccc(-c2nc(N[C@@H]3CCOC3)c(C)c(-n3nc(C)cc3C)n2)c1` (stereo partly shown) [Example 382-1a], for which the IC50 was below 100 nM.
`CNCC(O)COc1cccc(-c2nc(N[C@@H]3CCOC3)c(C)c(N3CCN(CC(=O)N(C)C)CC3)n2)c1` (stereo partly shown) [Example 391-1a]: the IC50 was below 100 nM.
In the case of `CNCC(O)COc1cccc(-c2nc(N[C@@H]3CCOC3)c(C)c(N3CC[C@@H](N(C)C)C3)n2)c1` (stereo partly shown) [Example 392-1a] it was below 100 nM; in that of `CNCC(O)COc1cccc(-c2nc(N[C@@H]3CCOC3)c(C)c(N3Cc4cccnc4C3)n2)c1` (stereo partly shown) [Example 394-1a], below 100 nM.
To `CNCC(O)COc1cccc(-c2nc(N[C@@H]3CCOC3)c(C)c(N3CCN(C(C)=O)[C@@H](C)C3)n2)c1` (stereo partly shown) [Example 396-1a] belongs below 100 nM; to `CNCC(O)COc1cccc(-c2nc(NC3CCOC3)c(C)c(C(=O)NC3CCN(C)CC3)n2)c1` (stereo not shown) [Example 397-1a], below 100 nM; to `CNCC(O)COc1cccc(-c2nc(NC3CCOC3)c(C)c(N3CC4(CCNCC4)c4ccccc43)n2)c1` (stereo not shown) [Example 398-1a], below 100 nM.
In the case of `CNCC(O)COc1cccc(-c2nc(N[C@@H]3CCOC3)c(C)c(-c3ccc(OC)nc3)n2)c1` (stereo partly shown) [Example 408-1a] it was below 100 nM.
`CNCC(O)COc1cccc(-c2nc(N[C@@H]3CCOC3)c(C)c(N3CC4CCC(C3)O4)n2)c1` (stereo partly shown) [Example 412-1a]: the IC50 is below 100 nM.
For `CNCC(O)COc1cccc(-c2nc(N[C@@H]3CCOC3)c(C)c(C3=CC(C)(C)NC(C)(C)C3)n2)c1` (stereo partly shown) [Example 415-1a], the IC50 was below 100 nM.
Consider `CNCC(O)COc1cccc(-c2nc(NC3CCOC3)c(C)c(N3CCN(C(C)=O)C[C@H]3C)n2)c1` (stereo partly shown) [Example 421-1a], for which the IC50 was below 100 nM.
For the compound `CNCC(O)COc1cccc(-c2nc(N[C@@H]3CCOC3)c(C)c(N3CCNCC3)n2)c1` (stereo partly shown) [Example 422-1a], the IC50 was below 100 nM.
To `CNCC(O)COc1cccc(-c2nc(N[C@@H]3CCOC3)c(C)c(N3CCC4(CC3)CNC(=O)C4)n2)c1` (stereo partly shown) [Example 424-1a] belongs below 100 nM; to `CNCC(O)COc1cccc(-c2nc(N[C@@H]3CCOC3)c(C)c(N3CCS(=O)(=O)CC3)n2)c1` (stereo partly shown) [Example 425-1a], below 100 nM.
`CNCC(O)COc1cccc(-c2nc(N[C@@H]3CCOC3)c(C)c(N3Cc4ccncc4C3)n2)c1` (stereo partly shown) [Example 427-1a]: the IC50 is below 100 nM.
In the case of `CNCC(O)COc1cccc(-c2nc(N[C@@H]3CCOC3)c(C)c(N3CCC4(CCNCC4)CC3)n2)c1` (stereo partly shown) [Example 429-1a], the IC50 is below 100 nM.
Regarding `CNCC(O)COc1cccc(-c2nc(N[C@@H]3CCOC3)c(C)c(N3CCN(S(C)(=O)=O)CC3)n2)c1` (stereo partly shown) [Example 434-1a], the IC50 is below 100 nM.
In the case of `CNCC(O)COc1cccc(-c2nc(N[C@@H]3CCOC3)c(C)c(N3CCN(C)C(=O)C3)n2)c1` (stereo partly shown) [Example 435-1a], the IC50 is below 100 nM.
To `CNCC(O)COc1cccc(-c2nc(N[C@@H]3CCOC3)c(C)c(N3CCN(C4CC4)CC3)n2)c1` (stereo partly shown) [Example 436-1a] belongs below 100 nM; to `CNCC(O)COc1cccc(-c2nc(N[C@@H]3CCOC3)c(C)c(N3CC[C@@H](O)C3)n2)c1` (stereo partly shown) [Example 437-1a], below 100 nM.
Turning to `CNCC(O)COc1cccc(-c2nc(N[C@@H]3CCOC3)c(C)c(N3CCN(C(C)=O)C(C)(C)C3)n2)c1` (stereo partly shown) [Example 439-1a], the IC50 is below 100 nM.
In the case of `CNCC(O)COc1cccc(-c2nc(N[C@@H]3CCOC3)c(C)c(N3C[C@H]4CNC[C@H]4C3)n2)c1` (stereo partly shown) [Example 440-1a] it was below 100 nM.
With `CNCC(O)COc1cccc(-c2nc(N[C@@H]3CCOC3)c(C)c(N3CCC(S(C)(=O)=O)CC3)n2)c1` (stereo partly shown) [Example 441-1a], the IC50 is below 100 nM.
To `CNCC(O)COc1cccc(-c2nc(NC3CCOC3)c(C)c(N3CC(N)CC(Cl)C3)n2)c1` (stereo not shown) [Example 442-1a] belongs below 100 nM; to `CNCC(O)COc1cccc(-c2nc(N[C@@H]3CCOC3)c(C)c(N3C[C@H]4C[C@@H]3CN4C)n2)c1` (stereo partly shown) [Example 443-1a], below 100 nM; to `CNCC(O)COc1cccc(-c2nc(NC3CCOC3)c(C)c(N3CCN(CCF)CC3)n2)c1` (stereo not shown) [Example 446-1a], below 100 nM.
In the case of `CNCC(O)COc1cccc(-c2nc(NC3CCOC3)c(C)c(N3CCN(C(=O)OC)C(C)(C)C3)n2)c1` (stereo not shown) [Example 447-1a] it was below 100 nM; in that of `CCS(=O)(=O)N1CCN(c2nc(-c3cccc(OCC(O)CNC)c3)nc(NC3CCOC3)c2C)CC1(C)C` (stereo not shown) [Example 448-1a], below 100 nM.
In the case of `CNCC(O)COc1cccc(-c2nc(NC3CCOC3)c(C)c(N3CCN(CC(F)(F)F)CC3)n2)c1` (stereo not shown) [Example 449-1a] it was below 100 nM.
For `CNCC(O)COc1cccc(-c2nc(NC3CCOC3)c(C)c(N3CC4CC(C3)N4)n2)c1` (stereo not shown) [Example 452-1a], the IC50 was below 100 nM.
In the case of `CNCC(O)COc1cccc(-c2nc(NC3CCOC3)c(C)c(N3CCN4C(=O)OC[C@@H]4C3)n2)c1` (stereo partly shown) [Example 454-1a], the IC50 was below 100 nM.
To `CNCC(O)COc1cccc(-c2nc(NC3CCOC3)c(C)c(N3CCN(C)C(C)(C)C3)n2)c1` (stereo not shown) [Example 455-1a] belongs below 100 nM; to `CCOC(=O)N1CCN(c2nc(-c3cccc(OCC(O)CNC)c3)nc(N[C@@H]3CCOC3)c2C)CC1` (stereo partly shown) [Example 456-1a], below 100 nM; to `CNCC(O)COc1cccc(-c2nc(NC3CCOC3)c(C)c(N3CCN(CC(F)F)C(C)(C)C3)n2)c1` (stereo not shown) [Example 457-1a], below 100 nM.
Take `CNCC(O)COc1cccc(-c2nc(N[C@@H]3CCOC3)c(C)c(N3CCN(CC(F)F)CC3)n2)c1` (stereo partly shown) [Example 458-1a]: the IC50 is below 100 nM.
As for `CNCC(O)COc1cccc(-c2nc(N[C@@H]3CCOC3)c(C)c(N3CCC(c4cccnc4)C3)n2)c1` (stereo partly shown) [Example 461-1a], the IC50 is below 100 nM.
In the case of `CNCC(O)COc1cccc(-c2nc(N[C@@H]3CCOC3)c(C)c(N3CCC4(CCOCC4)C3)n2)c1` (stereo partly shown) [Example 462-1a] it was below 100 nM.
In the case of `CNCC(O)COc1cccc(-c2nc(N[C@@H]3CCOC3)c(C)c(N3CCN(C)[C@H](C)C3)n2)c1` (stereo partly shown) [Example 463-1a] it was below 100 nM; in that of `CCS(=O)(=O)N1CCN(c2nc(-c3cccc(OCC(O)CNC)c3)nc(N[C@@H]3CCOC3)c2C)CC1` (stereo partly shown) [Example 464-1a], below 100 nM.
To `CNCC(O)COc1cccc(-c2nc(N[C@@H]3CCOC3)c(C)c(N3Cc4nc(C)sc4C3)n2)c1` (stereo partly shown) [Example 465-1a] belongs below 100 nM.
For the compound `CNCC(O)COc1cccc(-c2nc(N[C@@H]3CCOC3)c(C)c(N3CCN(C4CC4)[C@H](C)C3)n2)c1` (stereo partly shown) [Example 466-1a], the IC50 is below 100 nM.
To `CNCC(O)COc1cccc(-c2nc(N[C@@H]3CCOC3)c(C)c(N3CC[C@@H](c4cccnc4)C3)n2)c1` (stereo partly shown) [Example 467-1a] belongs below 100 nM.
To `CNCC(O)COc1cccc(-c2nc(N[C@@H]3CCOC3)c(C)c(N3CCC(n4nc(C)cc4C)C3)n2)c1` (stereo partly shown) [Example 468-1a] belongs below 100 nM.
Regarding `CNCC(O)COc1cccc(-c2nc(N[C@@H]3CCOC3)c(C)c(N3CCCC4(CN(CC(F)F)C4)C3)n2)c1` (stereo partly shown) [Example 469-1a], the IC50 is below 100 nM.
Turning to `CCOC(=O)N1CCN(c2nc(-c3cccc(OCC(O)CNC)c3)nc(N[C@@H]3CCOC3)c2C)C[C@H]1C` (stereo partly shown) [Example 470-1a], the IC50 was below 100 nM.
`CNCC(O)COc1cccc(-c2nc(N[C@@H]3CCOC3)c(C)c(N3CCN(CC(F)F)[C@H](C)C3)n2)c1` (stereo partly shown) [Example 471-1a]: the IC50 is below 100 nM.

These data come from patent publication US20230279020A9, “CARM1 INHIBITORS AND USES THEREOF” (Epizyme, Inc., priority 2013, published 2023).
